A short description of test [1]: DRD BJ cell killing, Ras synthetic lethality – DRD BJ fibroblasts, HRASV12, dry powder, dose response (AID 493049). The format is functional, cell-based.
Test [2] is described as follows: BJeHLT cell viability loss – BJeHLT cells, dry powder, counter-screen for Ras selective lethality project, dose response (AID 493052). To be noted: Homo sapiens. The format is functional, cell-based.
The nature of test [3]: BJeH cell viability loss – BJeH cells, dry powder, counter-screen for Ras selective lethality project, dose response (AID 493054). The format is functional, cell-based. (In general: The purpose of a counterscreen is to sort out artefacts and off-target activity.)
Test [4] in a line: HRAS-V12 fibroblast viability reduction – cell-based, Alamar Blue, dry powder, Ras selective lethality project, primary screen (AID 493045). The format is functional. The following applies: BJeLR. On the technique in general: The colour change of resazurin is a common sign of viable cells or microbes.
For test [5], the target named is T1, Polyadenylate-binding protein 1 (Homo sapiens, UniProt P11940). Description: blockers of PABP interaction with poly(A) – biochemical, fluorescence polarization, […] (AID 2014). For orientation: Polarisation of emitted light reports the rotation of a fluorescent probe.
In test [6] the target is T2, Eukaryotic translation initiation factor 4H (Homo sapiens, UniProt Q15056). As to the kind of experiment: inhibitors of translation initiation factor eIF4H – SAR follow-up (AID 435011). It counts as functional.
For test [7], the target named is T2, Eukaryotic translation initiation factor 4H. As to the kind of experiment: eIF4H binding inhibition – biochemical, uHTS, fluorescence polarization, translation initiation inhibitor project, primary screen (AID 2012).
Test [8] addresses T1, Polyadenylate-binding protein 1. Description: PABP inhibition in translation initiation, SAR follow-up (AID 435018). The format is functional.
Test [9] concerns the target NACHT, LRR and PYD domains-containing protein 1 (Homo sapiens, UniProt Q9C000). Description: NALP1 inhibitors in yeast, dose response, luminescent (AID 488860). The format is functional.
The next test deals with Beta Lactamase (Pseudomonas aeruginosa, UniProt Q932Y6). As to the kind of experiment: BLA reporter interference, concentration series – BLA reporter cells, FRET fluorescence, artefact control for TLR9-MyD88 binding inhibitor project, dose response (AID 588341).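 Further: cell based assay in CHO-K1 cells stably expressing beta-lactamase.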 It counts as cell-based.
The target of test [10] is G-protein coupled receptor 35 (Homo sapiens, UniProt Q9HC97). Description: inhibition of zaprinast-stimulated GPR35 beta-arrestin translocation – imaging, U2OS, beta-arrestin-GFP, zaprinast agonist, primary screen (AID 2058).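 Further: antagonist potency meaning inhibition of agonist-induced arrestin redistribution.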 The format is functional.
For the next test, the system named is Saccharomyces cerevisiae. As to the kind of experiment: S. cerevisiae Caspase-1/ASC signal blockers IC50, NALP1 inhibitor project selectivity test (AID 488863). The format is functional, organism-based.
Another test has as its target T3, Protein RecA (Mycobacterium tuberculosis, UniProt P9WHJ3).
T3 sequence (P9WHJ3 whole entry): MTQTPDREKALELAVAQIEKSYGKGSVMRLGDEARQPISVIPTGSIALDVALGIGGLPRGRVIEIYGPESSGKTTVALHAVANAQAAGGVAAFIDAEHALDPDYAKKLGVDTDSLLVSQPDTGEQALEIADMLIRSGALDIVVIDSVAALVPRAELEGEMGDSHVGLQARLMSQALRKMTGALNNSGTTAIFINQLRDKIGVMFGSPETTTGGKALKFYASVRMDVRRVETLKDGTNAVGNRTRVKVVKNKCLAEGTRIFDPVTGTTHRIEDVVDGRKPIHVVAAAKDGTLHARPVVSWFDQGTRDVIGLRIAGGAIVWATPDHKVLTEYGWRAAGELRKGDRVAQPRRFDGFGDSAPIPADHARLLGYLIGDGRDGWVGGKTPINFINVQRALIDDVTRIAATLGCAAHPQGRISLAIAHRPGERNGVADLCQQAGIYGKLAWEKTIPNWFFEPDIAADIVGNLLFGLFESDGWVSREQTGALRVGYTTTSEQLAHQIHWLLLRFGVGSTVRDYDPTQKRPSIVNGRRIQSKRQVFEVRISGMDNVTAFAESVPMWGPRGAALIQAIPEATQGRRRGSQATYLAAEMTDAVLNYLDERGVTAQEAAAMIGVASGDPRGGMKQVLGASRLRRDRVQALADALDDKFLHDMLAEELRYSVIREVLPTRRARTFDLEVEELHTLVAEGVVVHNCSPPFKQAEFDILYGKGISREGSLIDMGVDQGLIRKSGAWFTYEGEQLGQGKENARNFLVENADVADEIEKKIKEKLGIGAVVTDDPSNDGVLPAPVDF
Description: Fluorescence Cell-Free Homogeneous Dose Retest to Identify Inhibitors of RecA-Intein Splicing Activity. [Related pubchem assays (depositor defined):AID2097, AID2223, AID489010, AID492950]. The format is functional.

Test [11] deals with T4, Heat shock factor protein 1 (Mus musculus, UniProt P38532).
T4 sequence (P38532 whole entry): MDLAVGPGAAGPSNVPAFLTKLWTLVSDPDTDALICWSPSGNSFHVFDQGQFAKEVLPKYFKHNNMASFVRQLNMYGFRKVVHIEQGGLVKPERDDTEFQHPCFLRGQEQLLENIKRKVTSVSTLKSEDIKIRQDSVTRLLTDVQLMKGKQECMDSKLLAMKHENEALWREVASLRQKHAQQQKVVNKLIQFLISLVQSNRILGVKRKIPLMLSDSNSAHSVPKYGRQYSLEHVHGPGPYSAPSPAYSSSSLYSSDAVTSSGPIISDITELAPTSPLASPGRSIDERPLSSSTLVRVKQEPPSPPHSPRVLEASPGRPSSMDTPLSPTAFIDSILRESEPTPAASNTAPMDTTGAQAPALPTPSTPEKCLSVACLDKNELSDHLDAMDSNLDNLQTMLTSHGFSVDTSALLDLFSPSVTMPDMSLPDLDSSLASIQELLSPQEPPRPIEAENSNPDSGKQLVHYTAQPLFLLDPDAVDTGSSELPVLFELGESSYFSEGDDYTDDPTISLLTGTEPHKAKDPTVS
As to the kind of experiment: decrease of HSF1-responsive luciferase luminescence – cell-based, NIH3T3, dose retest, confirmation (AID 2382).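 Further: NIH3T3 fibroblasts with HSF1-driven luciferase reporter stressed by proteasome inhibitor MG132; luminescence from HSF1-driven luciferase expression after 8 hours of MG132 stress.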 The format is functional.

Test [12] deals with T5, Beta-galactosidase (Escherichia coli, UniProt Q8VNN2). As to the kind of experiment: detection-enzyme interference by beta-gal modulators – biochemical, E. coli enzyme, set 3, artefact control for CCR6 antagonist project, dose response (AID 504712). The format is functional.
Test [13] concerns HEK293. As to the kind of experiment: cells. To be noted: Homo sapiens.
The test system of test [14] is HEK293. Description: cells. The following applies: Homo sapiens. This is another data set of the same source.
In test [15] the target is T6, Replicative DNA helicase DnaB (Mycobacterium tuberculosis, UniProt P9WMR3).
T6 sequence (P9WMR3 whole entry): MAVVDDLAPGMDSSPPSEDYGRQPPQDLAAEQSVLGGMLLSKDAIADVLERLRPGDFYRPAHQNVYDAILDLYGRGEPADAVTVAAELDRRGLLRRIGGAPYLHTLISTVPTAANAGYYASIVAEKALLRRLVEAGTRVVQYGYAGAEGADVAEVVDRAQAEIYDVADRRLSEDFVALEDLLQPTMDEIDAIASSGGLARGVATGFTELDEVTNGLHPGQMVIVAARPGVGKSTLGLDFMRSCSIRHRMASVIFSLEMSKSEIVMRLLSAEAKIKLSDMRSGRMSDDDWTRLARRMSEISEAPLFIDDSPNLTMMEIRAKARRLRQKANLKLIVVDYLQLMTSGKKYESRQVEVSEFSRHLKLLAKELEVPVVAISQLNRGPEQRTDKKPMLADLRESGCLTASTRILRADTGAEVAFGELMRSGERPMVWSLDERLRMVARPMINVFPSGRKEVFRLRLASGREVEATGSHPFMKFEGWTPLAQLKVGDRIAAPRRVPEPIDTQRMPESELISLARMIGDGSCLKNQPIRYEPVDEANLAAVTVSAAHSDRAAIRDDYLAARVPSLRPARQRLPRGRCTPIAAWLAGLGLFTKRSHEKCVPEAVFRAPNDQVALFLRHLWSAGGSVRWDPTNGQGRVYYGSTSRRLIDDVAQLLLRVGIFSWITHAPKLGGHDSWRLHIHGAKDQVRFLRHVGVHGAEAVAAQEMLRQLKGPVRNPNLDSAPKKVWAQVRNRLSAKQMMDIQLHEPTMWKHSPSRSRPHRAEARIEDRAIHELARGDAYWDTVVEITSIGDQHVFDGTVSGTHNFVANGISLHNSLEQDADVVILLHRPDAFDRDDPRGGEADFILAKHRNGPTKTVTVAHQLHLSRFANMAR
Description: DnaB intein splicing inhibitors, dose response, biochemical, cell-free fluorescence (AID 449749). The format is functional.

The next test concerns CHO. Description: CHO cell viability loss, potency – luminescence, cytotoxicity control for TLR9-MyD88 binding inhibitor project, dose response (AID 588339).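 Further: CHO cells stably coexpressing TLR9 and MyD88 fusions from primary screen; compound exposure lasted 48 hours before viability readout.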 It counts as functional, cell-based, hamster. The following applies: Cricetulus griseus.
The target of another test is Protein S100-A4 (Homo sapiens, UniProt P26447). As to the kind of experiment: human S100A4 peptide interaction inhibition curves – biochemical, fluorescence polarization, cherry-picked hits, dose response (AID 687001). It counts as functional.
Test [16] deals with T7, Rac GTPase-activating protein 1 (Homo sapiens, UniProt Q9H0H5).
T7 sequence (Q9H0H5 whole entry): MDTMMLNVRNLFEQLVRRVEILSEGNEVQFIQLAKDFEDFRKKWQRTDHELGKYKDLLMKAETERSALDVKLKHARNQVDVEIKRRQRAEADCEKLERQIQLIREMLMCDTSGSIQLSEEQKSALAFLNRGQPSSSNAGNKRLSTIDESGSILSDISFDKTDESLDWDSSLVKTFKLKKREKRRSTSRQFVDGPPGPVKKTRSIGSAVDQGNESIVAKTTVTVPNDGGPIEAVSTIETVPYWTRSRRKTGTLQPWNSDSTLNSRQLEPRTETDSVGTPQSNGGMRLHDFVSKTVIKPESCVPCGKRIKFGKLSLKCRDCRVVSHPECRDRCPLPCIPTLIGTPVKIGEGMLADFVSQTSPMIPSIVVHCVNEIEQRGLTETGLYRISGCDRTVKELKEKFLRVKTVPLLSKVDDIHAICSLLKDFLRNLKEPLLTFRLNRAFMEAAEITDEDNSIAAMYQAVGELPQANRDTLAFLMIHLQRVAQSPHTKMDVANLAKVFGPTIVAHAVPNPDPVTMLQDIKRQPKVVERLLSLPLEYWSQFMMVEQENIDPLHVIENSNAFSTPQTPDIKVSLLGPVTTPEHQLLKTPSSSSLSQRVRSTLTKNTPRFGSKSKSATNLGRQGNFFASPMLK
As to the kind of experiment: blockers of MgcRacGAP-driven Rac1 GTP hydrolysis – biochemical, ADP Hunter fluorescence, primary and confirmatory, confirmation (AID 624330). The format is functional.

A further test has as its target Nonstructural protein 1 (Influenza A virus, UniProt Q194T2). It counts as functional, Influenza A virus (A/California/07/2009(H1N1)).
For the next test, the target named is Paired box protein Pax-8 (Homo sapiens, UniProt Q06710). Description: PAX8 transcriptional activity inhibition in RMG-I – RMG-I cells, luciferase, cherry-pick, dose response (AID 687027).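 Further: luciferase reporter driven by Pax8 target thyroperoxidase promoter measured by SteadyGlo luminescence.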 It counts as functional, cell-based.
Another test addresses ORF 73 (Human herpesvirus 8, UniProt O40947). As to the kind of experiment: KSHV LANA DNA-binding disruption – biochemical, fluorescence polarization, cherry-picked samples, dose response (AID 504725).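 Further: fluorescence polarization of a labeled DNA duplex reporting LANA DNA binding; potency is for inhibitors that block LANA binding to the DNA.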 Also noted: species or system Human gammaherpesvirus 8.
The nature of test [17]: viability loss in HeLa cells – cytotoxicity control for MgcRacGAP inhibitor project, dose response (AID 624300). It counts as functional.
The next test deals with HeLa. As to the kind of experiment: viability loss in HeLa cells – cell-based, 24 h, cherry-picked samples, cytotoxicity control, dose response (AID 504726). The format is functional. The following applies: Homo sapiens.
The target in test [18] is T5, Beta-galactosidase. It counts as functional.
Test [19] has as its target T8, Kappa-type opioid receptor (Homo sapiens, UniProt P41145). The format is functional.
Test [20] has as its target T8, Kappa-type opioid receptor. It counts as functional. The source holds these as a separate data set.

Usually AC50 stands for the midpoint of the concentration-response curve, whichever way the signal moves. A word on the IC50: it is the concentration that inhibits the measured activity by half. One may read the EC50 as the concentration at which the effect is half-maximal. By CC50 is commonly meant the concentration at which the toxic effect on the cells reaches its halfway point.

Calls of active or inactive are those of the source.

T1 sequence (P11940 whole entry): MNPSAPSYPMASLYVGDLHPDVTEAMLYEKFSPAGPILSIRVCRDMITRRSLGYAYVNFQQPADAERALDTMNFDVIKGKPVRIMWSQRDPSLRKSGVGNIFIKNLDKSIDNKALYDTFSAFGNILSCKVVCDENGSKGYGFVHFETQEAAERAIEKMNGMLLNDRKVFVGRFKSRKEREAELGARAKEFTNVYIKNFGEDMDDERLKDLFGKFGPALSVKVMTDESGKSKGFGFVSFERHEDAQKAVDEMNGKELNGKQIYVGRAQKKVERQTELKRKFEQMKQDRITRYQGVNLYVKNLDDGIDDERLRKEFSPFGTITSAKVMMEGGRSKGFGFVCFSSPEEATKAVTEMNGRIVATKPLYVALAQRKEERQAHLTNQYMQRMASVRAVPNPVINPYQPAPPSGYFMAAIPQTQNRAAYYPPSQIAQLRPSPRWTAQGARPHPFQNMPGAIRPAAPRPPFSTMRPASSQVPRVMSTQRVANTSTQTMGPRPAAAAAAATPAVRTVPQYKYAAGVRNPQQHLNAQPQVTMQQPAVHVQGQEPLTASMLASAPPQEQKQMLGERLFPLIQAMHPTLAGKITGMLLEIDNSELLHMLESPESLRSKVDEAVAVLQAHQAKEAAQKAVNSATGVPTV
T5 sequence (Q8VNN2 whole entry): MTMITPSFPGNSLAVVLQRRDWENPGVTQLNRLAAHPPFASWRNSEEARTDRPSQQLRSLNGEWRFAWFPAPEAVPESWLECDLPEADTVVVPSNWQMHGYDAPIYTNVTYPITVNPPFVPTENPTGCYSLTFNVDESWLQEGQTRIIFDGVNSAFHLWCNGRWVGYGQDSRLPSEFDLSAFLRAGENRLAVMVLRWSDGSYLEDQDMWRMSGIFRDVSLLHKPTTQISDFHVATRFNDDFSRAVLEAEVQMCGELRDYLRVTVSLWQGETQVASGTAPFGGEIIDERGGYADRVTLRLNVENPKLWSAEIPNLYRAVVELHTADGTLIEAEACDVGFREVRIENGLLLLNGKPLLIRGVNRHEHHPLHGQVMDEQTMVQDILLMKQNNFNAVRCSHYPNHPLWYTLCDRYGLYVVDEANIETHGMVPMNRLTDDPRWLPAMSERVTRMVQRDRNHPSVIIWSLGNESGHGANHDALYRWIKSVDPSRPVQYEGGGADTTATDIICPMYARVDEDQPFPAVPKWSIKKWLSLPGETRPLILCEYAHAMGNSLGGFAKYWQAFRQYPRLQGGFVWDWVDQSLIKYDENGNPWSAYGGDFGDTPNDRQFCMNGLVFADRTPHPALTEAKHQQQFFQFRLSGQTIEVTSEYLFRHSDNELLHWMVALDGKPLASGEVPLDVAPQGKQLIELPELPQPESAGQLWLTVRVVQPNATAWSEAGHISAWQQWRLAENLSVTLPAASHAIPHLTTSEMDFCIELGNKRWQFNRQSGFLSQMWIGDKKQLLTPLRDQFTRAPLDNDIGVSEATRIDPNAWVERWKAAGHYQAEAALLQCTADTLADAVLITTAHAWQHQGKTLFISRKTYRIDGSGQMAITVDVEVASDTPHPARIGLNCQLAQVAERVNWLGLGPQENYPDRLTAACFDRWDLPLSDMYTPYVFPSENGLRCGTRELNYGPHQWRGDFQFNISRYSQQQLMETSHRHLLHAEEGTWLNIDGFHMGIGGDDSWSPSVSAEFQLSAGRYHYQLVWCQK
T8 sequence (P41145 whole entry): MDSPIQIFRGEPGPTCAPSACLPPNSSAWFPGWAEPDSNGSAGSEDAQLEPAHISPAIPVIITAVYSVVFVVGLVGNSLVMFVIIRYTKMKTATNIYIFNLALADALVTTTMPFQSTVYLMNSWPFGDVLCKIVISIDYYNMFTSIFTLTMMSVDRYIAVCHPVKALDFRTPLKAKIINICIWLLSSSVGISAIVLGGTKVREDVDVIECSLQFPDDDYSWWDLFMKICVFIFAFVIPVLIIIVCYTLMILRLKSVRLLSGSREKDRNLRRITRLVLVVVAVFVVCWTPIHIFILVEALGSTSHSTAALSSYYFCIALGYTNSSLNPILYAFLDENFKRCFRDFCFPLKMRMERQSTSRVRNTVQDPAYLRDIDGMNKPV
Sequence of G-protein coupled receptor 35 (Q9HC97 whole entry): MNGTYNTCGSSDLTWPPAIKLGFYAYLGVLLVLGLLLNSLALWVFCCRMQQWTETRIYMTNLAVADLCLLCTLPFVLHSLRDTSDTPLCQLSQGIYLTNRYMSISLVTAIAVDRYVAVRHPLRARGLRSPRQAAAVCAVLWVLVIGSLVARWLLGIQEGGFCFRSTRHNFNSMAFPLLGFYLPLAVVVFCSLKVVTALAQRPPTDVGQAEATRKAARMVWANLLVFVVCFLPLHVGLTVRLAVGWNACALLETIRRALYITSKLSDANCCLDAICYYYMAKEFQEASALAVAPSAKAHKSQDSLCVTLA
Sequence of ORF 73 (O40947 whole entry): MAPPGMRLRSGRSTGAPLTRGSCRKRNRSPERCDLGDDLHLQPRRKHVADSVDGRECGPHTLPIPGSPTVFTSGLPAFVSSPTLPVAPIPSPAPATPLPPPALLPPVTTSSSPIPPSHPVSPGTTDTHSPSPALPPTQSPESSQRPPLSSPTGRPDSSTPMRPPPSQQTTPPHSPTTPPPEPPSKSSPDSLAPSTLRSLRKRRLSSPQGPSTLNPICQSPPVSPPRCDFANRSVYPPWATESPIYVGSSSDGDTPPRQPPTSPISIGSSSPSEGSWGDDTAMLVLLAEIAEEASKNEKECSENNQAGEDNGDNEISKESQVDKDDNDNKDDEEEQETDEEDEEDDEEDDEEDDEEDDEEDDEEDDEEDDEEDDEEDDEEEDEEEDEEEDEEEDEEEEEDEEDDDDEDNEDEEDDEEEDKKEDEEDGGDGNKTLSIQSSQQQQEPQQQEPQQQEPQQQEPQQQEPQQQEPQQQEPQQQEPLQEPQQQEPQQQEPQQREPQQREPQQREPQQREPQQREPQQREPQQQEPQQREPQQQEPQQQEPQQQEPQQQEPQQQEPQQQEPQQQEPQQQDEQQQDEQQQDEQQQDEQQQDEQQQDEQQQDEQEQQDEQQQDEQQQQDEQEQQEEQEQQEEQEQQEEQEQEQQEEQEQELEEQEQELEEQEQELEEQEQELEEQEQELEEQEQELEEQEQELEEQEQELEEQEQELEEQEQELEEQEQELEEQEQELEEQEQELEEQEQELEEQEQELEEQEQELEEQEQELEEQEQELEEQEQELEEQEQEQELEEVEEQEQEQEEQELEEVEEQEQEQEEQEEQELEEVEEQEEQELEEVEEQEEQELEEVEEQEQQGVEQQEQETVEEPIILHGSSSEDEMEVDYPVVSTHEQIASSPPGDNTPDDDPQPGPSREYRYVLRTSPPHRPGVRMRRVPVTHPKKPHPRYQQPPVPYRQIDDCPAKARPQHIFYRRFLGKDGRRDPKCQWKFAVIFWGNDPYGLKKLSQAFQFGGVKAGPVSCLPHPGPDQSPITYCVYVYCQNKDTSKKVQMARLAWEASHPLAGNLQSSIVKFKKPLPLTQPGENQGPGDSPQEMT
Sequence of Paired box protein Pax-8 (Q06710 whole entry): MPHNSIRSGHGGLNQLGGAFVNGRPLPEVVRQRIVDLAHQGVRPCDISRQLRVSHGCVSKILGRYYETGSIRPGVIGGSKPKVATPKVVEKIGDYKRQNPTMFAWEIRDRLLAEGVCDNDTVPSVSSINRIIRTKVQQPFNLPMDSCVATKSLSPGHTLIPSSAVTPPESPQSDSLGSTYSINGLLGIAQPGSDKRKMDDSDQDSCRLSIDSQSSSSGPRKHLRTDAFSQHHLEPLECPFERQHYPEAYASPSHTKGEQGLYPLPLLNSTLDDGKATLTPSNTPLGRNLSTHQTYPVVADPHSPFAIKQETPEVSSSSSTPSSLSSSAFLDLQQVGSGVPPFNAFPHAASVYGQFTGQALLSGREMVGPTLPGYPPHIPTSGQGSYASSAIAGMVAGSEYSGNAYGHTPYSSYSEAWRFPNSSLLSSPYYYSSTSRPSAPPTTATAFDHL
Sequence of Beta Lactamase (Q932Y6 whole entry): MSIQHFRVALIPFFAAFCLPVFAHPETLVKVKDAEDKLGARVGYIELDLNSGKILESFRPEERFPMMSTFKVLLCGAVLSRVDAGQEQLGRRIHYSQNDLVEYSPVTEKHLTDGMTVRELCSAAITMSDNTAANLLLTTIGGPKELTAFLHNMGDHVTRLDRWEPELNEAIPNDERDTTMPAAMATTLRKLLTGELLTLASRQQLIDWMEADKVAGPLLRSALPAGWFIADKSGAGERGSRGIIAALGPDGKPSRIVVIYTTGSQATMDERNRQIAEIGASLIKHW
Sequence of Nonstructural protein 1 (Q194T2 whole entry): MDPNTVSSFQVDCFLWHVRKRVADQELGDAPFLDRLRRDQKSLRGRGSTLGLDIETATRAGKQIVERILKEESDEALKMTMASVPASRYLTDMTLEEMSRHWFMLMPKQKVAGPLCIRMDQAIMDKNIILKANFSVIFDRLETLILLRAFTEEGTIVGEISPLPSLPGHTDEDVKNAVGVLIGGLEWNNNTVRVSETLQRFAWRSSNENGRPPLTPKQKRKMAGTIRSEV
Sequence of Protein S100-A4 (P26447 whole entry): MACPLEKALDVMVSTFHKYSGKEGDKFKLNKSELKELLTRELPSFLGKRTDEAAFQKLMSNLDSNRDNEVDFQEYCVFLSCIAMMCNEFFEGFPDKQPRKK

For the compound `COc1ccc(C(C(=O)NC2CCCCC2)N(C(=O)CCl)c2ccc(OC)c(Cl)c2)cc1` (centres undefined), the AC50 in [1] was 0.126 µM (active); in test [2], 0.366 µM (active); in test [3] it was 0.536 µM (active); in [4] it was 0.122 µM (active).

With `O=C(Nc1cccc2ncccc12)c1ccccc1Cl`, the IC50 in test [5] was 4 µM (active); in test [6], 9.25 µM (active); in [7] it was > 100 µM (inactive); in test [8] it was 1.68 µM (active).

In the case of `CC(NC(=O)/C(C#N)=C/c1ccc([N+](=O)[O-])o1)c1ccccc1` (centres undefined), the half-maximal inhibitory concentration (IC50) was 14.3 µM (active) in test [9]; 8.23 µM (active) on Beta Lactamase; 3.85 µM (active) in [10]; 9.51 µM (active) in the test with Saccharomyces cerevisiae; > 66.6 µM (inactive) at Beta-galactosidase [12]; 4.03 µM (active) in the test on CHO. For the same compound, the EC50 on Protein RecA is 35 µM (active); in test [11], 6.1 µM (active); with HEK293 [13] it was > 59.6 µM (inactive); in the test with HEK293 [14], > 59.6 µM (inactive). The AC50 in [15] was > 120 µM (inactive).

With `COc1cccc2c1C(=O)c1c(O)c3c(c(O)c1C2=O)CC(O)(C(C)=NNC(=O)c1ccc(Cl)c(Cl)c1)CC3OC1CC(N)C(O)C(C)O1` (centres undefined), the AC50 on Protein S100-A4 was 0.562 µM (active); on Paired box protein Pax-8 it was 4.72 µM (active); at ORF 73, 13.2 µM (active); with HeLa, 3.38 µM (active). The IC50 is 54.9 µM (active) in test [16] and 3.67 µM (active) at Nonstructural protein 1. Besides, the CC50 in [17] is 9.6 µM (active).

As to `C=CC/N=c1\scc(-c2ccc3c(c2)NC(=O)CO3)n1/N=C(\C)c1ccccn1`, the EC50 at Beta-galactosidase [18] is > 31.5 µM (inactive). Besides, the results for the IC50 in [19] and in test [20] were 10.1 µM (active) and over 32 µM, respectively.

For the origin of these results see ChEMBL document CHEMBL1201862, “PubChem BioAssay data set” (2004).
